Results reported in article PMC4457528, “Identification of Novel Small Molecule Inhibitors of Oncogenic RET Kinase” (PLoS ONE, 2015).
Read-outs that look alike come from different tables or passages of the source.

Legend:
wt RET = target: T1, wt RET (Homo sapiens, UniProt P07949); experiment: Invitrogen SelectScreen in vitro kinase assay, wt RET; assay type: biochemical; details: read-out: in vitro IC50 dose: RET
T1 construct: purchased Invitrogen (SelectScreen service)
Description: Fig 2 ALW-II-41-27, HG-6-63-01 and XMD15-44 chemical structure. A) Chemical structure of the studied compounds: red colour indicates the “tail”, black colour indicates “linker”, and pink colour indicates the “head” part in the binding. B) Modelling of ALW-II-41-27 (left), XMD15-44 (middle) and HG-6-63-01(right) binding to the DFG-out conformation of RET.
Though more rarely than C634 and M918 mutations, other mutations targeting RET residues in the tyrosine kinase domain can cause familial or sporadic MTC [1, 2]. […] Of note, RET A883 residue is located in the VI Hanks domain adjacent to RET activation loop and it corresponds to G372 residue in ABL kinase whose mutation has been isolated in imatinib-resistant patients.

MZ-CRC-1 cells = experiment: Growth curves, MZ-CRC-1 medullary thyroid carcinoma cells (RET/M918T); assay type: cell-based; details: Homo sapiens, 10% serum, 95% CI in brackets, read-out: Growth inhibition IC50 dose MZ-CRC-1
Procedure: TT human cell line was obtained in 2002 from ATCC and authenticated by RET genotyping; it was derived from a MTC and harbors a cysteine 634 to tryptophan (C634W) RET mutation. TT cells were grown in RPMI 1640 supplemented with 20% fetal calf serum (GIBCO). MZ-CRC-1 human cells were kindly provided in 2009 by Robert F. Gagel (MD Anderson, Houston, TX) and authenticated by RET genotyping. […] Nthy-ori 3–1, a human thyroid follicular epithelial cell line immortalized by the SV40 large T gene, was obtained from European Collection of Cell Cultures (ECACC) (Wiltshire, UK) in 2010.
(§1) To compare cell growth, we performed unpaired Student’s t test using the Instat software program (Graphpad Software Inc). P values were two-sided, and differences were considered statistically significant at P <.02. IC50 doses were calculated through a curve fitting analysis from last day values using the PRISM software program (Graphpad Software Inc).

RAT RET/C634R cells = assay type: cell-based; details: low serum, last day values, 95% CI in brackets, read-out: Growth inhibition IC50 dose: RAT RET/C634R
Procedure: as §1

KinomeScan kinase panel [1] = target: T2, KinomeScan kinase panel (Homo sapiens, UniProt Q9Y243); experiment: KinomeScan kinase panel, single concentration 10 µM; assay type: binding; details: AKT3, 10 µM; read-out: score (%)
T2 construct: purchased DiscoveRx (KinomeScan)
T2 sequence (Q9Y243 whole entry): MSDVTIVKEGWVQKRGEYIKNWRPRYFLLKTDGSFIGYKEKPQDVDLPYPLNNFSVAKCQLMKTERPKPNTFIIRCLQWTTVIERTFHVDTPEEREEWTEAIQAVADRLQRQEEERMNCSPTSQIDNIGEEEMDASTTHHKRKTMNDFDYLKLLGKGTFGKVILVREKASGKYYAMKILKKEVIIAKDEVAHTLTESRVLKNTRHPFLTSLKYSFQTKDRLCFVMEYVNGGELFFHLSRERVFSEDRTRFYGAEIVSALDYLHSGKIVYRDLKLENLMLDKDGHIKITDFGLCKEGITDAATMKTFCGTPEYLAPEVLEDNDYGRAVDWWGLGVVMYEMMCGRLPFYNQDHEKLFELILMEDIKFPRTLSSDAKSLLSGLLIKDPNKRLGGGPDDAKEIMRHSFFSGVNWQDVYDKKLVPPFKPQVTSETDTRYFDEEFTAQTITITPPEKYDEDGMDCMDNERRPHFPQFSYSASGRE

KinomeScan kinase panel [2] = target: T3, KinomeScan kinase panel (Homo sapiens, UniProt Q00535); experiment: as above; assay type: binding; details: CDK5, 10 µM; read-out: score (%)
T3 construct: purchased DiscoveRx (KinomeScan)
T3 sequence (Q00535 whole entry): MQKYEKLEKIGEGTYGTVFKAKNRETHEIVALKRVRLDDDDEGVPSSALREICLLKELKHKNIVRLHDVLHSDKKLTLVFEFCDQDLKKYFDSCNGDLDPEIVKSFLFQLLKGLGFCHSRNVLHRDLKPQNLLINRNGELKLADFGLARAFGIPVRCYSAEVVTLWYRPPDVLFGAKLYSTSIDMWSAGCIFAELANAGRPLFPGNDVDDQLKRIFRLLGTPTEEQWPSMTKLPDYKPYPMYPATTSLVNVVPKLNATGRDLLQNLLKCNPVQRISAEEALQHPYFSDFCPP

KinomeScan kinase panel [3] = target: T4, KinomeScan kinase panel (Homo sapiens, UniProt Q9Y6R4); experiment: as above; assay type: binding; details: MAP3K4, 10 µM; read-out: score (%)
T4 construct: purchased DiscoveRx (KinomeScan)
T4 sequence (Q9Y6R4 whole entry): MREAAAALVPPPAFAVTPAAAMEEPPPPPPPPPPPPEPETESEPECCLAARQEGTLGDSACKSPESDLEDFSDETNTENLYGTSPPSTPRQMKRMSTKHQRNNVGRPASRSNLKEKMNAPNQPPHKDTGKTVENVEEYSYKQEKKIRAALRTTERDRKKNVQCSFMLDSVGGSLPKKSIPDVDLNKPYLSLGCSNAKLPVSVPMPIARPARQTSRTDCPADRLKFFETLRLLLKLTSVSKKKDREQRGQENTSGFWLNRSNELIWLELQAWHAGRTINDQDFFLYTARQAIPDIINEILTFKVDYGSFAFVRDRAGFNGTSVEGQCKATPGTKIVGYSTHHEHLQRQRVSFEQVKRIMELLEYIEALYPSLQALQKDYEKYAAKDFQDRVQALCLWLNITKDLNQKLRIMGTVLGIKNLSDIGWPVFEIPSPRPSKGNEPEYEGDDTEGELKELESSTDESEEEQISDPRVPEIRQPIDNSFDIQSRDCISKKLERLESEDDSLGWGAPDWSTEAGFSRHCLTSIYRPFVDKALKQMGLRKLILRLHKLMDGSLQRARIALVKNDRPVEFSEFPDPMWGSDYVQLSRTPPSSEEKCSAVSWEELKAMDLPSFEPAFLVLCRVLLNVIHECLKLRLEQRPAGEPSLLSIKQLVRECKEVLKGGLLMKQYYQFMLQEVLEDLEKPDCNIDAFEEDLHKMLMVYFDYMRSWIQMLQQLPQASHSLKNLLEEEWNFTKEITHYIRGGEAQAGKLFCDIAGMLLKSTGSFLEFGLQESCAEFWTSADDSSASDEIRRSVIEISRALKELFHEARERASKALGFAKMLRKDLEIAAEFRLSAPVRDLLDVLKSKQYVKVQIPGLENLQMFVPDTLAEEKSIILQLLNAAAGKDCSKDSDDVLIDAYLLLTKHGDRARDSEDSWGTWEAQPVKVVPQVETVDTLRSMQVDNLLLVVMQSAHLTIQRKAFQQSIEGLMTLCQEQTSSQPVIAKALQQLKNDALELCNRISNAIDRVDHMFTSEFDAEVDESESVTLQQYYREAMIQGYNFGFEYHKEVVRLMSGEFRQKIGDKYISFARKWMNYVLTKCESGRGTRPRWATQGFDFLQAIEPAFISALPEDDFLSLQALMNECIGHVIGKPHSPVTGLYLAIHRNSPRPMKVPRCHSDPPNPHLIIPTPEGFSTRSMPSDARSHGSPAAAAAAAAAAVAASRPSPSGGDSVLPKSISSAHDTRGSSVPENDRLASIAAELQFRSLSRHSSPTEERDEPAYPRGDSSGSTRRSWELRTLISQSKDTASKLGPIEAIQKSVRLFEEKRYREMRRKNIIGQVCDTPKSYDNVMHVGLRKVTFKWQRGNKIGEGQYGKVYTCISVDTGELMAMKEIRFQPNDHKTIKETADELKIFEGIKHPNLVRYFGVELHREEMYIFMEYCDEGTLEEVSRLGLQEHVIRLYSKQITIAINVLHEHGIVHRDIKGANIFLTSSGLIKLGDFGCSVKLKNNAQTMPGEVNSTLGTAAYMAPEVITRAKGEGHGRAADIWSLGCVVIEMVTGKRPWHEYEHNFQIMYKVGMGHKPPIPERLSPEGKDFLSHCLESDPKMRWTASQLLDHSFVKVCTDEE

KinomeScan kinase panel [4] = target: T5, KinomeScan kinase panel (Homo sapiens, UniProt P54760); experiment: as above; assay type: binding; details: EPHB4, 10 µM; read-out: score (%)
T5 construct: purchased DiscoveRx (KinomeScan)
T5 sequence (P54760 16-987): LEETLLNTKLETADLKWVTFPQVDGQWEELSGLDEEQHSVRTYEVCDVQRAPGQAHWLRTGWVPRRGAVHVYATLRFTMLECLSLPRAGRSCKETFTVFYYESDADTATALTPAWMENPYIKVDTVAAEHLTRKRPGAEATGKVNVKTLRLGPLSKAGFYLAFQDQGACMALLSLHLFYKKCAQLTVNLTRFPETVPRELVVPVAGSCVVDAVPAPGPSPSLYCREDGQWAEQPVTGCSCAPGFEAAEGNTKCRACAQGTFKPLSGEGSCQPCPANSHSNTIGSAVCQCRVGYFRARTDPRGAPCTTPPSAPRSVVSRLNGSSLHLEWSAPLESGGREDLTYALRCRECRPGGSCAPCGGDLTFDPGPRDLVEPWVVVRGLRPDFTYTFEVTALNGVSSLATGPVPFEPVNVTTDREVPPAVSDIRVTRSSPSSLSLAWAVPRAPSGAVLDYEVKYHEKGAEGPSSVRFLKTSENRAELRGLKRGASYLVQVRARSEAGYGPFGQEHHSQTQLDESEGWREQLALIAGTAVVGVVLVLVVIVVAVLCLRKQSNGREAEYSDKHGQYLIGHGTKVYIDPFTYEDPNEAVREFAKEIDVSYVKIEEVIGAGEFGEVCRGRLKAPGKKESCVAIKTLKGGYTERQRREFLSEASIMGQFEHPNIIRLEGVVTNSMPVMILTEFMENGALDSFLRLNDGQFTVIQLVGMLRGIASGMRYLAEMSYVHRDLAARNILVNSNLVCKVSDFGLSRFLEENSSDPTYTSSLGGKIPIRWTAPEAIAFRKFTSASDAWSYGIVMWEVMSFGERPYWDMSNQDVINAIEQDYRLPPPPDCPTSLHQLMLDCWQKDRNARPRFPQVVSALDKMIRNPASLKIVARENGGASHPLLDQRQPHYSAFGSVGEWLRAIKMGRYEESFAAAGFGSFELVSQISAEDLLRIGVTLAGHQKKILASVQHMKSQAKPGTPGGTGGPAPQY

KinomeScan kinase panel [5] = target: T6, KinomeScan kinase panel (Homo sapiens, UniProt O96013); experiment: as above; assay type: binding; details: PAK4, 10 µM; read-out: score (%)
T6 construct: purchased DiscoveRx (KinomeScan)
T6 sequence (O96013 whole entry): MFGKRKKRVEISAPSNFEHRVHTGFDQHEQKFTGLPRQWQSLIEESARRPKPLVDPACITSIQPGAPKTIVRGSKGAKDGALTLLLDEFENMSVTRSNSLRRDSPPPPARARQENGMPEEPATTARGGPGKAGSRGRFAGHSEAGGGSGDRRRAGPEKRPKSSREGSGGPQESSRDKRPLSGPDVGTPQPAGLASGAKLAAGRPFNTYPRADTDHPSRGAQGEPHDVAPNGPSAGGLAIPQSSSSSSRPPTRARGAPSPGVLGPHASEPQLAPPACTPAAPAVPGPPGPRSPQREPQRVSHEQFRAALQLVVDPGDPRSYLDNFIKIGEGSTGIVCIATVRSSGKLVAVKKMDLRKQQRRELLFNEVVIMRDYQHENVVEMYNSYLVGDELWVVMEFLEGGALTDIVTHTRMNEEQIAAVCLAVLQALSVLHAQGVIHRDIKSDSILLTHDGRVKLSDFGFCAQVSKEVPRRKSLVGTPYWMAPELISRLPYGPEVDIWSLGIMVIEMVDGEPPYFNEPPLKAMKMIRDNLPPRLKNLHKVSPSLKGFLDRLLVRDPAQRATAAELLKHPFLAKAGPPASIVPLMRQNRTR

KinomeScan kinase panel [6] = target: T7, KinomeScan kinase panel (Homo sapiens, UniProt Q16288); experiment: as above; assay type: binding; details: 10 µM, read-out: score (%)
T7 construct: purchased DiscoveRx (KinomeScan)
T7 sequence (Q16288 32-839): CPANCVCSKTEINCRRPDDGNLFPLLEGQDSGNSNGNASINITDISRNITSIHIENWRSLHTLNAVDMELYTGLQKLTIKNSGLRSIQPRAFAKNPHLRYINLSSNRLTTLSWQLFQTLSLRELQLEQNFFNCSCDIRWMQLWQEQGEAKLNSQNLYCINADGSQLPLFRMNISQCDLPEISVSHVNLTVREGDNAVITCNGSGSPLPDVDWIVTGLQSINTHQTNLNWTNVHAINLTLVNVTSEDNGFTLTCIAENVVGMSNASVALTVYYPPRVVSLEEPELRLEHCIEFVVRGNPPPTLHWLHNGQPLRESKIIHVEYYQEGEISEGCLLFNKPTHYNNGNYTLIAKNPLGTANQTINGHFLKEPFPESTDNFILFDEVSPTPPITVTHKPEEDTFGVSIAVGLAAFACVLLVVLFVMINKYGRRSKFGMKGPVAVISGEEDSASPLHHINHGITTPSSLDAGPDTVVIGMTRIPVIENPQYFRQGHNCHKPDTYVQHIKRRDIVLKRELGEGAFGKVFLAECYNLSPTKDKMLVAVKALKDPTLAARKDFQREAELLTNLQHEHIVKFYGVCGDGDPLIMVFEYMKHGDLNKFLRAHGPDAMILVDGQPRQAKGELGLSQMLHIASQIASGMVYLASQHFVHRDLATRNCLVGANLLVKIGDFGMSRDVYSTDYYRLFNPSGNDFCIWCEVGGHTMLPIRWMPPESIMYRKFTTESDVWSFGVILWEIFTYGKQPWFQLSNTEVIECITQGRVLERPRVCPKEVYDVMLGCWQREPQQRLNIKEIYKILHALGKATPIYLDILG

KinomeScan kinase panel [7] = target: T8, KinomeScan kinase panel (Homo sapiens, UniProt Q9H1R3); experiment: as above; assay type: binding; details: MYLK2, 10 µM; read-out: score (%)
T8 construct: purchased DiscoveRx (KinomeScan)
T8 sequence (Q9H1R3 whole entry): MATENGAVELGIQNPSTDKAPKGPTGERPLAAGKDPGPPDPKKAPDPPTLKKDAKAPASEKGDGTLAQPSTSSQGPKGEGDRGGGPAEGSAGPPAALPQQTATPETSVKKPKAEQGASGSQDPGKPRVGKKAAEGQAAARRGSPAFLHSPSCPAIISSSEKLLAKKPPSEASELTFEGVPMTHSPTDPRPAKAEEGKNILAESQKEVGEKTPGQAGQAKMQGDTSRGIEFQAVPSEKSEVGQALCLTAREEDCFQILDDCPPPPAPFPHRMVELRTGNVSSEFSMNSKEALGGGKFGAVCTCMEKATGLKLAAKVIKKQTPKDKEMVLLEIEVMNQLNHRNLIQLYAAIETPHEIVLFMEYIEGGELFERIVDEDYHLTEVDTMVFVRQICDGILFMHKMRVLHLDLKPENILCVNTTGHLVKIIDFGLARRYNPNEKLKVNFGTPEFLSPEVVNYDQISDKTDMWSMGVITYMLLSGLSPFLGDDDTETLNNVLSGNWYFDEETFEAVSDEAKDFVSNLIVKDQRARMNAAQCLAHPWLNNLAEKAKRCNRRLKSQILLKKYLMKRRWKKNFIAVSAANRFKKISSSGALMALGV

KinomeScan kinase panel [8] = target: T9, KinomeScan kinase panel (Homo sapiens, UniProt Q8IU85); experiment: as above; assay type: binding; details: CAMK1D, 10 µM; read-out: score (%)
T9 construct: purchased DiscoveRx (KinomeScan)
T9 sequence (Q8IU85 whole entry): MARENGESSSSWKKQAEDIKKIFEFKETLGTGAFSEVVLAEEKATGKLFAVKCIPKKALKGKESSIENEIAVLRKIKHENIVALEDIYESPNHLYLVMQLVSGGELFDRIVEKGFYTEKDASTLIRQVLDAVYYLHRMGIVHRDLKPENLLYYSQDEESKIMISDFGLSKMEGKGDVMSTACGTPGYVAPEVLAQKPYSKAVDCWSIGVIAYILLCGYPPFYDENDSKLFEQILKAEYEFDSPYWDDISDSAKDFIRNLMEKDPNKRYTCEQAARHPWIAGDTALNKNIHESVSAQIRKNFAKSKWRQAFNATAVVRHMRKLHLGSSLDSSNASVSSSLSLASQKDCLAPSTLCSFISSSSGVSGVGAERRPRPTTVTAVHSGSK

remaining binding at 10 µM (KinomeScan kinase panel [6]; TRKC) [%]	SMILES	IC50 (wt RET) [nM]	IC50 (MZ-CRC-1 cells) [nM]	IC50 (RAT RET/C634R cells) [nM]	remaining binding at 10 µM (KinomeScan kinase panel [1]) [%]	remaining binding at 10 µM (KinomeScan kinase panel [2]) [%]	remaining binding at 10 µM (KinomeScan kinase panel [3]) [%]	remaining binding at 10 µM (KinomeScan kinase panel [4]) [%]	remaining binding at 10 µM (KinomeScan kinase panel [5]) [%]	remaining binding at 10 µM (KinomeScan kinase panel [6]; kinase TRKC) [%]	remaining binding at 10 µM (KinomeScan kinase panel [7]) [%]	remaining binding at 10 µM (KinomeScan kinase panel [8]) [%]
	CCN1CCN(Cc2ccc(NC(=O)c3ccc(C)c(NC(=O)c4cncc(-c5cccs5)c4)c3)cc2C(F)(F)F)CC1 [ALW-II-41-27]	24.7	2	44	20	> 30	> 30	0.55	> 30	0.85	> 30	> 30
5.3	CCN1CCN(Cc2ccc(NC(=O)c3ccc(C)c(/C=C/c4cnc5[nH]ccc5c4Cl)c3)cc2C(F)(F)F)CC1 [HG-6-63-01, (E)-3-(2-(4-chloro-1H-pyrrolo[2,3-b]pyridin-5-yl)vinyl)-N-(4-((4-ethylpiperazin-1-yl)methyl)-3-(trifluoromethyl)phenyl)-4-methylbenzamide]	35.3	1	21	> 30	> 30	> 30	5.7	> 30		0.25	> 30
	CCN1CCN(Cc2ccc(NC(=O)c3ccc(C)c(C#Cc4cccnc4)c3)cc2C(F)(F)F)CC1 [XMD15-44]	14.2	4.2	11.5	> 30	10	> 30	1.6	100	0.35	3.4	> 30
